Laboratory results: ChEMBL document CHEMBL1132727, “A novel pyridazinone derivative as a nonprostanoid PGI2 agonist” (Bioorg Med Chem Lett, 2000)

How the values were obtained:
Homo sapiens = species: Homo sapiens; experiment: Tested for Concentration required for the inhibition of ADP-induced aggregation of human platelets; format: functional
Prostacyclin receptor = Prostacyclin receptor (Homo sapiens, UniProt P43119); experiment: Tested for inhibition of 3[H]-iloprost binding to human IP receptor
Chain of Prostacyclin receptor (P43119 whole entry): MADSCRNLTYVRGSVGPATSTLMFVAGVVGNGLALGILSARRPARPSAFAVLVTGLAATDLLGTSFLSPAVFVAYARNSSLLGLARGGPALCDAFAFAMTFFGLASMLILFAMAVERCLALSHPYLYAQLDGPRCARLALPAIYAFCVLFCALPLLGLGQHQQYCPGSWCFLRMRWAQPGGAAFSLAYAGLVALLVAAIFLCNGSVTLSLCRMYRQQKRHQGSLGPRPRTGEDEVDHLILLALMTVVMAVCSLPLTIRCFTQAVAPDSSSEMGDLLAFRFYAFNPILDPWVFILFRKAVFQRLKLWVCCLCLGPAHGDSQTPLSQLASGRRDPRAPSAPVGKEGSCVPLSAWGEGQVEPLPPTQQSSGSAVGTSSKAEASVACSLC

[1] = Half-life after intravenous administration in male rat; format: ADME, organism-based; settings: in vivo
[2] = Half-life after intravenous administration in female rat; format: ADME, organism-based; settings: in vivo
[3] = Half-life after administration of 3.2 mg/kg intravenously in male rat; format: ADME, organism-based; design: dose 3.2 mg/kg, route intravenous; settings: in vivo, iv
[4] = Oral Bioavailability after administration of 10 mg/kg in male rat; format: ADME, organism-based; settings: in vivo, read-out: Bioavailabiility

Q: Which IC50 (Homo sapiens) does the source give for `O=C(O)COc1cccc2c1CC[C@H](Cn1cc(C(c3ccccc3)c3ccccc3)ccc1=O)C2` here?
A: 130 nM

Q: With `O=C(O)COc1cccc2c1CC[C@H](Cn1cccc(C(c3ccccc3)c3ccccc3)c1=O)C2` as the compound, how does the IC50 (Homo sapiens) read?
A: > 10000 nM

Q: With `O=C(O)COc1cccc2c1CCC(Cn1cc(C(c3ccccc3)c3ccccc3)cn1)=C2` as the compound, how does the IC50 (Homo sapiens) read?
A: 41 nM

Q: Which Ki (Prostacyclin receptor) does the source give for `CC#CCC(C)[C@H](O)/C=C/[C@H]1[C@H](O)CC2Oc3c(CCCC(=O)[O-])cccc3[C@@H]21.[Na+]` (some centres not stated) here?
A: 80 nM

Q: And the half-life [1]?
A: 0.43 h

Q: And the half-life [2]?
A: 3.3 h

Q: What about the IC50 (Homo sapiens) of the same compound?
A: 4.3 nM

Q: With `O=C(O)COc1cccc2c1CC[C@H](Cn1nc(C(c3ccccc3)c3ccccc3)ccc1=O)C2` as the compound, how does the Ki (Prostacyclin receptor) read?
A: 94 nM

Q: And the half-life [3]?
A: 4.3 h

Q: And the bioavailability [4]?
A: 56%

Q: What about the IC50 (Homo sapiens) of the same compound?
A: 81 nM

Q: With `CCC/C(CC1CCc2c(cccc2OCC(=O)O)C1)=N\OC(c1ccccc1)c1ccccc1` (configuration not stated) [AP-227] as the compound, how does the IC50 (Homo sapiens) read?
A: 150 nM
